In a melting point compilation (Tetko et al.; mined from patent text by program, amines drawn as free bases though some values may be those of a salt):

melting point | Structure (SMILES)
221 to 232 °C | C#CCN(Cc1cc2c(=O)[nH]c(C)nc2cc1Br)c1ccc(C(=O)NC(CO)c2cccc([N+](=O)[O-])c2)cc1 (configuration not stated)
> 250 °C | Nc1cc(=O)[nH]c2ccccc12
180 °C | CCC1Sc2cc(-c3cccc([N+](=O)[O-])c3)ccc2NC1=O (configuration not stated)
197 to 200 °C | Cc1ccc2[nH]ncc2c1N
90 to 92 °C | CCCCS(=O)(=O)NC1Cc2ccc(C(C)=O)cc2C1 (configuration not stated)
87 °C | Cn1c(SC(F)F)n[nH]c1=O
187 to 192 °C | Cc1nc2c(O[C@@H]3c4ccccc4C[C@H]3O)cccn2c1C=O (relative stereo)
75 to 80 °C | CCCCCCCCCCCCN=C=S
81 to 82 °C | N=C(Nc1cccc(NC(=O)CNC(=O)OCc2ccccc2)c1)N1CCCC1
171 to 173 °C | NC(=NCC(F)(F)F)Nc1cnn(-c2cccc(C(=O)NCCO)c2)n1
154 to 156 °C | CCCCCCCCCCNC(=O)c1cc(C(=O)NCCCCCCCCCC)cc(N(CCCC(=O)O)CCCC(=O)O)c1
119 to 120 °C | CCC1(CCCN2CCN(c3cccc(Cl)c3)CC2)C(=O)Nc2ccccc21 (configuration not stated)
84 to 86 °C | CCOC(=O)C1=C(C)NC(COC(C)=O)=C(C(=O)OCC)C1c1ccccc1OC (configuration not stated)
157 to 159 °C | COc1ccc(C(C#Cc2ccccc2)CN(C)C(=O)C(=O)O)cc1OC1CCCC1 (racemic)
88 to 92 °C | Brc1ccc(Br)c2nonc12
219 to 220 °C | Cc1cn(C2CCN(c3c(F)cc4c(=O)c(C(=O)O)cn(C5CC5)c4c3F)C2)nn1 (configuration not stated)
109 to 112 °C | COc1cc2c(c(Cl)c1Cl)C(=O)C(C)(C1CCCC1)C2 (configuration not stated)
156 to 158 °C | COc1cccc(Nn2cnc(C)c2-c2ccccc2)c1
187 to 189 °C | O=C(c1ccc(Cl)cc1)c1c(N2C(=O)c3ccccc3C2=O)sc(-c2ccccc2)c1CN1CCCCC1
100 to 102 °C | Clc1csc2c(Cl)cccc12
86 °C | CC(C)(C)c1cc(SCCOCC(=O)O)cc(C(C)(C)C)c1O
219 to 221 °C | O=C(Cn1c(=O)n(S(=O)(=O)c2ccc(Cl)cc2)c(=O)c2ccc(Cl)cc21)Nc1ccc(C(=O)O)cc1
144 to 146 °C | N#CC(C#N)CC(CC(F)(F)C(F)(F)C(F)(F)C(F)F)S(=O)(=O)C(F)(F)F (configuration not stated)
183 °C | NCC#Cc1cnc2c(c1)N(Cc1cc(Cl)ccc1Cl)CCN2
157 to 159 °C | COC(=O)c1ccc(-c2n[nH]c3ccccc23)o1

melting point | Structure (SMILES)
193 to 196 °C | NC(=O)c1ccc(Cc2ccccc2)cn1
144 to 145 °C | CCCCCCCCCCCC(=O)Nc1ccc(NC(=O)CCNC(=O)C2OC(C)(C)OCC2(C)C)cc1 (configuration not stated)
113 to 115 °C | CC(CC1c2ccccc2CCN1C)NCC(O)c1ccc(O)cc1 (configuration not stated)
120 °C | CCOC(=O)c1cc(=O)c2ccc([N+](=O)[O-])c(C)c2o1
141 to 143 °C | CCCc1nc2c(N)nc3cc(OCCN4CCCCC4)ccc3c2s1
158 to 160 °C | CCNC(=O)N1CCc2ccc(S(=O)(=O)NC(=O)NC3CCCCC3)cc2CC1
202 to 203 °C | NS(=O)(=O)c1ccccc1S(=O)(=O)NC1CC1
162 to 164 °C | O=C1CC(=O)CC2(CCOCC2)C1
93 to 95 °C | O=C(O)c1cccc(C(CCc2ccc(Cl)cc2)CC(=O)c2ccccc2)c1 (configuration not stated)
198 °C | CCOC(=O)COc1ccc(-c2nc3ncccc3[nH]2)c(O)c1
61 to 62 °C | CCCCCCCCCCCCCOc1ccc(C(C)=O)o1
149 to 152 °C | COc1ccc(N2C(=O)[C@H](O)[C@H]2c2ccco2)cc1
165 to 167 °C | COc1ccccc1-c1cn(-c2ccccc2)nc1O
185 to 187 °C | O=C(O)Cc1c(-c2ccccc2)nn(-c2cccnc2)c1-c1ccccc1
88.2 to 89.2 °C | O=Cc1cc(Br)ccc1N1CC=CC1
90 to 93 °C | CCOC(Cc1ccc(OCCN2C(=O)COc3ccccc32)cc1)C(=O)O (configuration not stated)
164 to 166 °C | COc1ccc(-c2ccc(C(=O)Nc3ccc4cc(CN5CCCC5)cnc4c3C)c(F)c2)cc1
99 to 100 °C | CCOC(=O)c1cc2c3ccccc3n(C)c2s1
248 to 249 °C | C/C(=N\O)c1cccc(Nc2c3ccccc3nc3occc23)c1
206 to 209 °C | Cc1cn2c(=O)c3cc(S(=O)(=O)Cl)ccc3nc2s1
249 to 250 °C | O=C(O)CN1CCN2c3ccccc3Cn3cccc3C2C1 (configuration not stated)
106 to 107 °C | CCOC(=O)N1CCN(c2ccc(C(=O)CCc3ccc(N)cc3)cc2)CC1
114 °C | CCc1cc(-c2cccc(NC(C)=O)n2)c(OC)cc1OCCN(C)C
109 to 111 °C | O=C1N(Cc2c[nH]c3ccccc23)CCCC12CCN(c1cnc3ccccc3n1)CC2
205 to 206 °C | CC(=O)c1c(Br)[nH]c(-c2ccncc2)c1C

melting point | Structure (SMILES)
125 °C | N#Cc1ccccc1Oc1ccc(-c2cn(C3CCOCC3)c3ncnc(N)c23)cc1
155 to 157 °C | CCOC(=O)Cc1ccc(NC(=O)C(Cn2ccnc2)NS(=O)(=O)c2ccc(F)cc2)cc1 (racemic)
102 °C | Cc1nn(C(=O)NC(C)(C)CCc2ccccc2Cl)c(=O)n1N
80 to 90 °C | CCCCCCC(C(=O)O)n1ccc2cc(-c3cccc(OC)c3C(=O)O)ccc21 (configuration not stated)
106 °C | C#CCn1c(C(F)(F)F)c(C=O)c2ccccc21
154 °C | Nc1c(SC(F)(F)F)nc(Br)n1-c1c(Cl)cc(C(F)(F)F)cc1Cl
86 to 90 °C | COc1ccc(N2CCN(c3c(C)c(C)c4c(c3C)CC(C)(Cn3ccnc3C)O4)CC2)cc1 (configuration not stated)
132 °C | CN(CCNC(=O)NCCSCc1csc(NC(=N)N)n1)CCN(Cc1ccc(F)cc1)c1ccccn1
250 to 253 °C | O=C(O)CN1C(=O)c2cccc3c(Sc4ccccc4)ccc(c23)C1=O
65 to 66 °C | Cc1ccc(C(C)N2C(=O)c3ccccc3C2=O)cc1 (configuration not stated)
219 to 221 °C | CC(C)C(=O)Nc1cc([N+](=O)[O-])c(Sc2cccc3cnccc23)cc1N
118 to 120 °C | O=C1CCC(Cc2ccc(Cl)cc2)CN1 (configuration not stated)
232 to 234 °C | Cc1ccn2nc(S(=O)(=O)Nc3c(Cl)cccc3Cl)nc2c1
73 to 75 °C | CCOC(=O)C1=C(C)NC(CSCCc2ccccc2)=C(C(=O)OCC)C1c1cccc([N+](=O)[O-])c1 (configuration not stated)
210 °C | CCCCc1nc2cnccc2n1Cc1ccc(C(=O)O)cc1
228 to 229 °C | O=C1CC(c2cccc([N+](=O)[O-])c2)=Nc2ccc(C#Cc3ccccc3)cc2N1
106 to 117 °C | CCOCCn1c(NC2CCN(CCC3(c4ccccc4)CCN(C(=O)c4cc(OC)c(OC)c(OC)c4)C3)CC2)nc2ccccc21 (single isomer, unassigned; (-))
171 to 172 °C | COc1ccc(COc2ccc(C(=O)O)cc2OCc2ccc(OC)cc2)cc1
120 to 122 °C | OC1(c2cc(F)cc(CC#COC#CCc3cc(F)cc(C4(O)CCOCC4)c3)c2)CCOCC1
81 to 82 °C | C#CCOc1nc(-c2ccc(OC)cc2)n(-c2ccc(OC)cc2)n1
127 to 129 °C | CSC(=NC(=O)c1ccccc1)Nc1c(Cl)cccc1Cl
79 to 80 °C | CC(C)(C#N)c1ccc(C(=O)CCCCl)cc1
150 to 151 °C | O=C(NCCCCCOc1ccc(-n2ccnc2)cc1)c1ccc(Br)cc1
210 °C | CCC(CC)Nc1nnc(-c2ccccc2)c2ccccc12
286 to 288 °C | COc1cc(O)c(C#N)c2cc(-c3ccc(O)cc3)oc12

melting point | Structure (SMILES)
221 to 223 °C | O=C(Nc1cccc(NC(=O)C(F)(F)F)c1)Nc1ccc(Cl)c(Cl)c1
171 to 173 °C | Cc1ccc(-c2cn3cc(-c4cccc(CO)c4)ccc3n2)cc1
156 to 158 °C | CC(C)(C)OC(=O)NC1CCCCCC=CC2CC2(C(=O)NS(=O)(=O)C2CC2)NC(=O)C2CC(OC(=O)c3ccc4ccccc4c3)CN2C1=O (configuration not stated)
118 to 119 °C | CCCCCCCCCCCCCCCCCCOCC(O)Cn1cc(F)c(N)nc1=O (configuration not stated)
102 to 104 °C | CC1(C)Cc2cccc(S(N)(=O)=O)c2S1
180 to 182 °C | CCOC(=O)c1ccc(OCC)c(-c2ncc(C(=O)OCC)c(=O)[nH]2)c1
220 to 221 °C | c1ccc(N2CCN(Cc3nc4ccccc4[nH]3)CC2)nc1
85 to 90 °C | O=C(O)COCN(c1ccc(CN2CCN(Cc3ccccc3)C(=O)C2=O)cc1)c1ncccn1
45 to 46 °C | CN(C)CCC(O)c1ccccc1 (configuration not stated)
156 to 158 °C | CN1CC(=O)N(c2ccc(C(C)(C)C)cc2)C1=S
155 °C | N#CC=C1CCN(c2ccc(N3CC(CNC(=O)C4CCCN4)OC3=O)cc2F)CC1 (configuration not stated)
107 °C | O=c1[nH]c(=O)n(C2CC(F)C(CO)O2)cc1C(Br)=CI (configuration not stated)
115 to 117 °C | CC(=S)NC[C@H]1CN(c2ccc3c(c2)C[C@@H](C)N3C(=O)CO)C(=O)O1
220 to 221 °C | C=CCOn1c(=O)[nH]c2cc(F)c(F)cc2c1=O
125 to 138 °C | C[C@@H](CNC(=O)COC(=O)c1cc(S(N)(=O)=O)c(Cl)cc1NCc1ccco1)O[N+](=O)[O-]
133 to 135 °C | Cc1noc(NS(=O)(=O)c2ccc(-c3ccccc3)cc2)c1Br
159 to 163 °C | COc1cccc(-c2cc3[nH]nc(I)c3s2)c1
> 300 °C | CC(=O)Nc1cccc2c1C(=O)c1c-2n[nH]c1-c1ccc(N(C)C)cc1
150 to 152 °C | OCCN1CCN(C2Cc3ccccc3Sc3cc(F)c(Cl)cc32)CC1 (configuration not stated)
62 to 63 °C | CCN(CC)C(=O)c1ccsc1-c1ccc(F)cc1
68 to 73 °C | O=C(O)C(=O)c1ccc(F)c(Br)c1
138 to 139 °C | CN1CC(c2cccc(Br)c2)=C(c2ccc(S(C)(=O)=O)cc2)C1=O

Structure (SMILES) | melting point
NC(=O)CN1CC2C=CC1C2 (configuration not stated) | 74 to 96 °C
CC1(C)OCc2cc(Cc3c[nH]cn3)ccc2O1 | 150 to 170 °C
CC(O)C#Cc1ncn2c1CN(C)C(=O)c1c(Cl)cccc1-2 (configuration not stated) | 251 to 252 °C
COc1c(CBr)cccc1CBr | 83.5 to 85.5 °C
CCN(Cc1ccccc1)C(=O)Cc1c(-c2ccc(C)cc2)nc2cc(C)ccn12 | 220 to 222 °C
